Data taken from publication PMC8226722, “Comparison of Solution Chemical Properties and Biological Activity of Ruthenium Complexes of Selected β-Diketone, 8-Hydroxyquinoline and Pyrithione Ligands” (Pharmaceuticals, 2021).

How the values were obtained:
[1] = test system: Colo 205 chemo-sensitive human colonic adenocarcinoma cell line; test: MTT cytotoxicity assay, Colo 205; type: cell-based; conditions: for IC50: 72 h, MTT; for S.I. MRC-5/Colo 205: ratio of the indicated IC50 values
Protocol: (§1) Human colonic adenocarcinoma cell lines Colo 205 doxorubicin-sensitive (ATCC-CCL-222) and Colo 320/MDR-LRP multidrug resistant expressing ABCB1 (MDR1)-LRP (ATCC-CCL-220.1) were purchased from LGC Promochem (Teddington, UK). […] Cell lines were incubated at 37 °C, in a 5% CO2, 95% air atmosphere. The semi-adherent human colon cancer cells were detached with Trypsin-Versene (EDTA, Sigma, Steinheim, Germany) solution for 5 min at 37 °C. MRC-5 human embryonal lung fibroblast cell lines (ATCC CCL-171) were purchased from LGC Promochem. […] The cell lines were incubated at 37 °C, in a 5% CO2, 95% air atmosphere.
(§2) In the study MRC-5 non-cancerous human embryonic lung fibroblast and human colonic adenocarcinoma cell lines (doxorubicin-sensitive Colo 205 and multidrug resistant Colo 320 colonic adenocarcinoma cells) were used to determine the effect of compounds on cell growth. The effects of increasing concentrations of compounds on cell growth were tested in 96-well flat-bottomed microtiter plates. The stock solutions of the compounds were prepared in DMSO, and in the final samples the DMSO content was always lower than 1%. The compounds were diluted in a volume of 100 μL of medium.
(§3) In case of the colonic adenocarcinoma cells, the two-fold serial dilutions of compounds were prepared in 100 μL of RPMI 1640, horizontally. The semi-adherent colonic adenocarcinoma cells were treated with Trypsin-Versene (EDTA) solution. They were adjusted to a density of 1 × 10^4 cells in 100 μL of RPMI 1640 medium, and were added to each well, with the exception of the medium control wells. The final volume of the wells containing compounds and cells was 200 μL.
(§4) The culture plates were incubated at 37 °C for 72 h; at the end of the incubation period, 20 μL of MTT (Sigma) solution (from a stock solution of 5 mg/mL) were added to each well. After incubation at 37 °C for 4 h, 100 μL of sodium dodecyl sulfate (SDS) (Sigma) solution (10% in 0.01 M HCl) were added to each well and the plates were further incubated at 37 °C overnight. Cell growth was determined by measuring the optical density (OD) at 540/630 nm with Multiscan EX ELISA reader (Thermo Labsystems, Cheshire, WA, USA). […] Curves were fitted by Prism software (GraphPad Software Inc., San Diego, CA, USA) using the sigmoidal dose-response model (comparing variable and fixed slopes). The IC50 values were obtained from at least 3 independent experiments.

[2] = test system: Colo 320 multidrug resistant human colonic adenocarcinoma cell line; test: MTT cytotoxicity assay, Colo 320; type: cell-based; conditions: for IC50: 72 h, MTT; for S.I. MRC-5/Colo 320: ratio of the indicated IC50 values
Protocol: as §1, §2, §3, §4

[3] = Solution stability and speciation (UV-vis, 1H-NMR, pH-potentiometry); conditions: for logK formation constant: suggested on the basis of pH-potentiometric data; for pH-dependent stability, UV-vis spectra: pH range 2–11, 24 h
Protocol: In order to confirm our prediction, time-dependent UV-visible (UV-vis) spectra were recorded for complexes 5–8 at pH 7.4 in aqueous solution (in modified phosphate buffered saline (PBS) buffer—PBS’) and in Eagle’s minimum essential medium (EMEM) used for the cytotoxicity studies in the presence of 2% (v/v) dimethyl sulfoxide (DMSO). […] Additionally, ^1H-NMR spectra were recorded for more water-soluble complexes 6–8.
In order to compare the stability of 1 and 3 at physiological pH, a serial dilution was made and UV-vis spectra were recorded in a wide concentration range (10 μM–3 mM) (Figure S10).
Titrations were performed in a carbonate-free KOH solution (0.20 M). The exact concentration of HCl and KOH solutions was determined by pH-potentiometric titrations.
The path length (l) was usually 1 cm, and 2, 5, 20 or 50 mm cells were used occasionally. Equilibrium constants (proton dissociation, stability constants, conditional stability constants (K’7.4) for the formation of mim adducts) and the individual spectra of the species were calculated with the computer program PSEQUAD [55]. The spectrophotometric titrations were performed in aqueous solution of the complexes at 25.0 ± 0.1 °C at an ionic strength of 0.20 M (KCl). Spectrum of the solution of 200 μM complex upon addition of one or two equivalents of its own ligand or phen was also measured at pH 7.4. UV-vis spectra recorded for the complexes as a function of chloride concentrations or PTA (in case of the chlorido complexes) were used to investigate the co-ligand exchange processes at pH 7.4. […] In some cases, the measurements were performed in the presence of 1–2% (Cl^−/PTA exchange reactions) or 6–8% (v/v) (interaction of mim with complexes 2, 4) DMSO.
^1H-NMR stability studies were carried out on a Bruker Avance III HD 500 MHz instrument. All ^1H-NMR spectra were recorded on samples containing 10% (v/v) D2O with the WATERGATE water suppression pulse scheme using DSS internal standard. Stability of complexes 6–8 was checked over time by ^1H-NMR spectroscopy at 500 μM in PBS’ or in EMEM (with 10% (v/v) DMSO-d6).

[4] = test system: Enterococcus faecalis ATCC 29212; test: MIC determination (CLSI broth microdilution); type: cell-based; conditions: Gram-positive, ATCC 29212, 18 h
Protocol: (§5) Wild-type Escherichia coli K-12 AG100 strain [argE3 thi-1 rpsL xyl mtl Δ(gal-uvrB) supE44] expressing the AcrAB TolC EP at its basal level and Klebsiella pneumoniae ATCC 49,619 Gram-negative strains were studied in the experiments. Staphylococcus aureus ATCC 43,300 methicillin-resistant (MRSA) strain and Enterococcus faecalis ATCC 29,212 strain were used as Gram-positive strains in the assays. MIC values of the complexes were determined in 96-well plates based on the Clinical and Laboratory Standard Institute guidelines (CLSI guidelines). The stock solutions of the compounds (dissolved in DMSO using 10 mM concentration) were diluted in 100 μL of Mueller Hinton Broth. Then 10^−4 dilution of an overnight bacterial culture in 100 μL of medium was added to each well, with the exception of the medium control wells.

[5] = test system: Escherichia coli K-12 AG100; test: MIC determination (CLSI broth microdilution); type: cell-based; conditions: Gram-negative, AG100, 18 h
Protocol: as §5

[6] = test system: Staphylococcus aureus ATCC 43300 methicillin-resistant (MRSA); test: MIC determination (CLSI broth microdilution); type: cell-based; conditions: Gram-positive, MRSA ATCC 43300, 18 h
Protocol: as §5

[7] = test system: Klebsiella pneumoniae ATCC 49619; test: MIC determination (CLSI broth microdilution); type: cell-based; conditions: Gram-negative, ATCC 49619, 18 h
Protocol: as §5

SMILES | IC50 [1] | S.I. MRC-5/Colo 205 [1] | IC50 [2] | S.I. MRC-5/Colo 320 [2] | fraction of unbound Ru(η6-p-cymene) ([3]; 1H-NMR, pH 1.0, 24 h, 200 mM chloride) | logK formation constant [3] | MIC E. faecalis [4] | MIC E. coli [5] | MIC S. aureus [6] | MIC K. pneumoniae [7] | pH-dependent stability, UV-vis spectra [3]
Cc1ccc(C(C)C)cc1.[Cl-].[O-]n1ccccc1=S.[Ru+2] [complex 1] | 14 ± 0.62 µM | 0.15 | 3.3 ± 1.3 µM | 0.66 | < 3% | > 8 | 100 µM | >100 µM | 50 µM | >100 µM | 
C1N2CN3CN1CP(C2)C3.Cc1ccc(C(C)C)cc1.F[P-](F)(F)(F)(F)F.[O-]n1ccc2ccccc2c1=S.[Ru+2] [complex 4] | > 100 µM | <0.81 | > 100 µM | <0.81 |  |  | >100 µM | >100 µM | >100 µM | >100 µM | stayed unchanged
C1N2CN3CN1CP(C2)C3.Cc1ccc(C(C)C)cc1.F[P-](F)(F)(F)(F)F.O=C(C=C([O-])C(F)(F)F)c1ccc(Cl)cc1.[Ru+2] [complex 8] | 80.6 ± 1.1 µM | 0.22 | 47.8 ± 7.3 µM | 0.37 |  |  | 100 µM | >100 µM | 50 µM | >100 µM | 
C1N2CN3CN1CP(C2)C3.Cc1ccc(C(C)C)cc1.F[P-](F)(F)(F)(F)F.[O-]n1ccccc1=S.[Ru+2] [complex 2] | > 100 µM |  | > 100 µM |  |  |  | >100 µM | >100 µM | >100 µM | >100 µM | stayed unchanged
Cc1ccc(C(C)C)cc1.[Cl-].[O-]n1ccc2ccccc2c1=S.[Ru+2] [complex 3] | 17.3 ± 3.1 µM | 0.44 | 10.7 ± 1.5 µM | 0.71 |  | > 8 | 12.5 µM | >100 µM | 12.5 µM | >100 µM | 
Cc1ccc(C(C)C)cc1.O=C(C=C([O-])C(F)(F)F)c1ccc(Cl)cc1.[Cl-].[Ru+2] [complex 7] | 52.4 ± 2.7 µM | 0.51 | 29.1 ± 2 µM | 0.91 |  |  | 50 µM | >100 µM | 50 µM | >100 µM | 
